The source of these data is patent US4256642A, “Pharmaceutically active 2,9-dioxatricyclo[4,3,1,0^3,7 ] decanes” (Kali-Chemie Pharma GmbH, priority 1975, dated 1981).

What is called ED50 is the dose at which the effect has come halfway, by size or by number of responders. Read a low ED50 as an effect at a small dose. For orientation: LD50 means the dose at which mortality reaches 50%. A higher LD50 goes with a less toxic substance.

For data set [1], the system named is Mouse. The experiment in a line: Lowered rectal temp. p.o. (Mouse). The data set is classed as in vivo. To be noted: po. Here is the method: (§1) The in vivo activity of representative compounds of the present invention was determined as set forth in Table I below by administration to mice in pharmaceutically effective amounts.
Lowered rectal temp. ED50 p.o.(*)

Data set [2] in a line: Acute toxicity LD50 i.p. (Mouse). Conditions: in vivo, ip. Here is the method: as §1
The test system of data set [3] is Mouse. The experiment in a line: Analgesia, Phenylbenzoquinone test (Writing), p.o. (Mouse). The data set is classed as in vivo. To be noted: for ED50: po, Phenylbenzoquinone test; for Analgesia relative to Propoxyphene: footnote (b) to analgesia ED50 p.o. Here is the method:
as §1
Analgesia ED50 p.o.(a)(*)
(a) Phenylbenzoquinone test (Writing

As for `C[C@@H]1[C@H]2OC[C@H]3[C@@H]1C[C@H](O)[C@@]3(C)O2` [compound 2422], the ED50 in the data set on Mouse [1] is 400 mg/kg; in the data set on Mouse [3], less than 50 mg/kg. Further, the LD50 in data set [2] is 920 mg/kg.
Take `CNC(=O)O[C@H]1C[C@@H]2[C@H](C)[C@H]3OC[C@@H]2[C@]1(C)O3` [compound 2624]: the median effective dose (ED50) in the data set on Mouse [1] was 32 mg/kg; in the data set on Mouse [3], less than 50 mg/kg. Besides, in data set [2], the LD50 was 739 mg/kg.
Turning to `CC(=O)O[C@H]1C[C@@H]2[C@H](C)[C@H]3OC[C@@H]2[C@]1(C)O3` [compound 2614], the 50% effective dose (ED50) was 100 mg/kg in the data set on Mouse [1] and less than 50 mg/kg with Mouse [3]. The LD50 in data set [2] was 822 mg/kg.
Turning to `C[C@@H]1[C@H]2OC[C@H]3[C@@H]1CC(=O)[C@@]3(C)O2` [compound 2619], it took a dose of 25 mg/kg to reach the 50% effect level in the data set on Mouse [1] (ED50). In data set [2], this compound displayed an LD50 of 1600 mg/kg. Also, in the data set on Mouse [3], the “Analgesia relative to Propoxyphene” value is “≥ Propoxyphene” and the ED50 is less than 10 mg/kg.
For `C[C@@H]1[C@H]2OC[C@H]3[C@@H]1C[C@@H](O)[C@@]3(C)O2` [compound 2455], in that order: 10 mg/kg, 406 mg/kg, “≥ Propoxyphene” and less than 10 mg/kg.
Consider `CNC(=O)O[C@@H]1C[C@@H]2[C@H](C)[C@H]3OC[C@@H]2[C@]1(C)O3` [compound 2648], for which the ED50 with Mouse [1] is less than 100 mg/kg; with Mouse [3], less than 10 mg/kg. In data set [2], this compound came in with a median lethal dose (LD50) of 800 mg/kg.
For `COC1O[C@H]2O[C@]3(C)[C@@H](O)C[C@H]([C@H]2C)[C@H]13` (some centres unmarked) [compound 1246], in that order: 100 mg/kg, 68 mg/kg and greater than 800 mg/kg.
For `COC1O[C@H]2O[C@]3(C)[C@H](O)C[C@H]([C@H]2C)[C@H]13` (some centres unmarked) [compound 1561], in that order: 100 mg/kg, 100 mg/kg and greater than 800 mg/kg.
